Data on 14 compounds can be found in ChEMBL document CHEMBL3882734, “Therapeutic compounds” (2010).

The structures appear in SMILES notation.

Assay [1] deals with Rhesus monkey. In words: Reduction in intraocular pressure in monkey assessed as maximal change in intraocular pressure at 0.01% administered topically to one eye immediately after first intraocular pressure reading by pneumatonometry. The assay is classed as functional, Macaca mulatta.
In assay [2] the target is Prostaglandin E2 receptor EP4 subtype (Homo sapiens, UniProt P35408). In words: Displacement of [3H]PGE2 from human EP4 receptor expressed in HEK293 cells membranes incubated for 60 mins. It is filed as cell membranes.
Sequence of Prostaglandin E2 receptor EP4 subtype (P35408 whole entry): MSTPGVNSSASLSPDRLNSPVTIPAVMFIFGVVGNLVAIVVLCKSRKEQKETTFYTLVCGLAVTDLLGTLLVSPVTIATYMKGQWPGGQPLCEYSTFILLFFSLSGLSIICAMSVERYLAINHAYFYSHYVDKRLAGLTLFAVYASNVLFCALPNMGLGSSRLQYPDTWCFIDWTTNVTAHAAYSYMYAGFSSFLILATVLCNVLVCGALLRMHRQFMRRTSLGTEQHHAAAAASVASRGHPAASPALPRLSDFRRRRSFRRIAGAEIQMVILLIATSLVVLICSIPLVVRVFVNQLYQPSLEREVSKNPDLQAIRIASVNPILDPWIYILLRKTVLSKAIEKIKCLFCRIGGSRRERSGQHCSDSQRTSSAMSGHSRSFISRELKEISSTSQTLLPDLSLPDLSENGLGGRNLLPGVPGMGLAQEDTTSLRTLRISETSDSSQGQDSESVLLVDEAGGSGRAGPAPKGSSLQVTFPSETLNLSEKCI
Assay [3] concerns the target T1, Prostaglandin E2 receptor EP2 subtype (Homo sapiens, UniProt P43116). Put plainly: Agonist activity at human recombinant EP2 receptor expressed in HEK293 cells assessed as effect on calcium accumulation by Fluo-4 AM dye based FLIPR assay. It is filed as functional, cell-based.
Assay [4] deals with Rhesus monkey. Put plainly: Reduction in intraocular pressure in monkey assessed as maximal change in intraocular pressure at 0.1% administered topically to one eye immediately after first intraocular pressure reading by pneumatonometry. It is filed as functional, Macaca mulatta.
Assay [5] has as its system Canis familiaris. In words: Effect on ocular surface hyperemia in Beagle dog assessed as maximum ocular surface hyperemia score assigned value at 0.1% administered topically to one eye immediately after first intraocular pressure reading by pneumatonometry. It is filed as functional, Canis lupus familiaris.
For assay [6], the target named is T1, Prostaglandin E2 receptor EP2 subtype. Put plainly: Displacement of [3H]PGE2 from human EP2 receptor expressed in HEK293 cells at pH 7.3 membranes incubated for 60 mins. It is filed as cell-based. (In a radioligand displacement assay an active substance lowers the binding of a labelled ligand.)
Assay [7] relates to Canis familiaris. Put plainly: Effect on ocular surface hyperemia in Beagle dog assessed as maximum ocular surface hyperemia score assigned value at 0.3% administered topically to one eye immediately after first intraocular pressure reading by pneumatonometry. It is filed as functional, Canis lupus familiaris.
Assay [8] has as its system Rhesus monkey. In words: Reduction in intraocular pressure in monkey assessed as maximal change in intraocular pressure at 0.3% administered topically to one eye immediately after first intraocular pressure reading by pneumatonometry. The assay is classed as functional, Macaca mulatta.

T1 sequence (P43116 whole entry): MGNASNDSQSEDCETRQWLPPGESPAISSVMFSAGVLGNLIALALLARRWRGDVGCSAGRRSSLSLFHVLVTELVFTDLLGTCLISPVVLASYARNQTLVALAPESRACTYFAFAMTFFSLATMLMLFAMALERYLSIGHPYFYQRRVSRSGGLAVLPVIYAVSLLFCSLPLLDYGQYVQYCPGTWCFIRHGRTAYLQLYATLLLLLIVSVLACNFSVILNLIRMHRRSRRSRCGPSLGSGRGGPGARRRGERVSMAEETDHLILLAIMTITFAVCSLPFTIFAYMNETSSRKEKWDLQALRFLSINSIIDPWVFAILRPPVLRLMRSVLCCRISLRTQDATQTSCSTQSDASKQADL

As to `CC(C)OC(=O)CCC/C=C\C[C@@H]1[C@@H](c2ccc(C(O)C3CCCCC3)cc2)[C@H](O)C[C@H]1Cl` (stereo partly specified), in assay [1], the Activity was 5 mmHg.

As usually defined, the Ki is the dissociation constant of the complex between target and ligand, obtained from inhibition or displacement. Broadly, the EC50 is the concentration giving half of the maximal effect. As to `CCCCCC(=O)c1ccc([C@H]2[C@H](O)CC(=O)[C@@H]2C/C=C\CCCC(=O)O)cc1`, the Ki in assay [2] turned out to be 2.81 µM. Besides, the EC50 in assay [3] stood at 0.031 µM. For the compound `CCCCCC(=O)c1ccc([C@@H]2[C@@H](C/C=C\CCCC(=O)OC(C)C)[C@H](Cl)C[C@H]2O)cc1`, the Activity in assay [4] worked out at 20 mmHg. As to `CCCCCC(=O)c1ccc([C@@H]2[C@@H](C/C=C\CCCC(=O)O)[C@H](Cl)C[C@H]2O)cc1`, the Activity in assay [4] was 31 mmHg. For the compound `O=C(O)CCC/C=C\C[C@@H]1[C@@H](c2ccc(C(O)C3CCCCC3)cc2)[C@H](O)C[C@H]1Cl` (stereo partly specified), in assay [5], the Activity_index was found to be 1.

Consider `CCCCCC(O)c1ccc([C@H]2CC[C@@H](Cl)[C@@H]2CCCCCCCO)cc1` (stereo partly specified), for which the Ki in assay [6] was determined as 50 µM. In assay [3], the EC50 was 50 µM.

The compound `CCCCCC(O)c1ccc([C@H]2CC[C@@H](Cl)[C@@H]2CCCCCCC(=O)OC)cc1` (stereo partly specified) had a Ki in assay [6] (hek293) of 50 µM. The EC50 in assay [3] (hek293) was determined as 50 µM. On to `CCCCCC(O)c1ccc([C@H]2CC[C@@H](F)[C@@H]2CCCCCCC(=O)OC)cc1` (stereo partly specified), for which the Ki in assay [6] (hek293) came out at 50 µM. In assay [3] (hek293), the EC50 was 50 µM. Turning to `CCCCCC(O)c1ccc([C@@H]2[C@@H](C/C=C\CCCC(=O)OC(C)C)[C@H](Cl)C[C@H]2Cl)cc1` (stereo partly specified), the Activity in assay [4] amounted to 19 mmHg. For the compound `CCCCCC(O)c1cccc([C@H]2CCC(=O)[C@@H]2CCCCCCC(=O)OC)c1` (stereo partly specified), the Ki in assay [6] (hek293) came out at 50 µM. Besides, the EC50 in assay [3] (hek293) amounted to 50 µM.

In the case of `CC(C)OC(=O)CCCCCC[C@@H]1[C@@H](c2ccc(C(C)(C)C)cc2)[C@H](O)C[C@H]1Cl`, in assay [1], the Activity was 8 mmHg.

With `CC(C)OC(=O)CCC/C=C\C[C@@H]1[C@@H](c2ccc(C(C)(C)CO)cc2)[C@H](O)C[C@H]1Cl`, in assay [4], the Activity amounted to 6 mmHg. For the compound `O=C(O)CCC/C=C\C[C@@H]1[C@@H](c2ccc3c(c2)CCC3O)[C@H](O)C[C@H]1Cl` (stereo partly specified), the Activity_index in assay [7] is on record as 1. In addition, in assay [8], the Activity was 7 mmHg. In assay [6] (hek293), `CCCCCC(O)c1ccc([C@H]2CCC=C2CCCCCCC(=O)OC)cc1` (stereo partly specified) yielded a Ki of 50 µM. The EC50 in assay [3] (hek293) was 50 µM.
